Drawing on patent US20250084074A1, “SUBSTITUTED HETEROCYCLES AS HSET INHIBITORS” (MERCK PATENT GMBH, priority 2022, published 2025), this text covers IC50 for 22 compounds.

The structures appear in SMILES notation.

HSET full length protein, sequence (Q9BW19 whole entry): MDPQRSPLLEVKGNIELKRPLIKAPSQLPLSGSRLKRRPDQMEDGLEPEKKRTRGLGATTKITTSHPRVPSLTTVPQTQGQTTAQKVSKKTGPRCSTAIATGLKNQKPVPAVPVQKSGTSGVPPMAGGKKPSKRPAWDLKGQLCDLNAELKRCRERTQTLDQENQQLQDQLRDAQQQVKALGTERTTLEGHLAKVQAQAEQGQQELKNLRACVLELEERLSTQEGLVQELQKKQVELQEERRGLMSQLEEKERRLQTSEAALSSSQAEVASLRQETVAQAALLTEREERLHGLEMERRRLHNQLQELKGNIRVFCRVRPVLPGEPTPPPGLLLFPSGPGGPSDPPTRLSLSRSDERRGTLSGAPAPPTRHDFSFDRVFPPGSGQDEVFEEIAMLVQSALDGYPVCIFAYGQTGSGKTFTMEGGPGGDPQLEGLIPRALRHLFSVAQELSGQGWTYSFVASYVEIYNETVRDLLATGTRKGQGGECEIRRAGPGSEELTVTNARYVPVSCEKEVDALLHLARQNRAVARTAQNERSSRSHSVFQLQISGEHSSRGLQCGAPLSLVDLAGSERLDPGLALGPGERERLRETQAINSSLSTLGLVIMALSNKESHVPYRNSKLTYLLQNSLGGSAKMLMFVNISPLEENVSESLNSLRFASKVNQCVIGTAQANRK

The target in the assay is HSET full length protein (Homo sapiens (Human), UniProt Q9BW19). Kind of assay: HSET ADP-Glo Assay S - 3 μM ATP. The following applies: 5 nM HSET, 70 μg/mL microtubule, 80 min at rt, read-out: COMBINED HSET ADP GLO IC50. The class given is biochemical. Here is the method:
Example 281: Testing compounds of the present invention for inhibitory activities against HSET—HSET ADP-Glo Assay S—3 μM ATP
Reagents: (+4° C. Storage) • Paclitaxel Prod.No.TXD.01 2 mM in DMSO (from Universal Biologicals Cambridge). • Tubulin Protein (Pre-formed Microtubules): Bovine Brain Prod.No.MT001-XL Lot.025 10 mg/mL (from Universal Biologicals Cambridge).
Reagents: (−80° C. Storage) • MT001-XL—Tubulin Protein (Pre-formed Microtubules): Bovine Brain—reconstituted in buffer—15 mM PIPES pH7, 1 mM MgCl2, 20 μM paclitaxel (aliquots at 10 mg/mL) from Universal Biologicals Cambridge. • HSET full length protein—Current batch is FL HSET Prep1 (SEQ-000096_002-01_01) • Buffer is 20 mM Hepes pH 7.5, 200 mM NaCl, 2 mM TCEP, 5% glycerol (5 μL aliquots at 10.2 μM)
Reagents: (−20° C. Storage) • ADP-Glo Kinase Assay kit (Promega Prod.No.V9102) 10,000 assay points • ADP-Glo reagent (50 mL), Kinase Detection Reagent (100 mL), and Ultrapure ATP (10 mM) aliquoted
Buffer Stocks (filtered and stored at rt for up to 1 month) • HEPES acid, 4-(2-Hydroxyethyl)piperazine-1-ethanesulfonic acid MW:238, 238.3 mg/mL=1 M • 7149 mg/30 mL=1M (pH to 6.8 with 5 M NaOH) • PIPES, 1,4-Piperazinediethanesulfonic acid MW: 302.4, 30.24 mg/mL=100 mM; 907.2 mg/30 mL=100 mM (pH to 7 with 5 M NaOH, white cloudy suspension until the pH changes) • EGTA, Ethylene glycol-bis(2-aminoethylether)-N,N,N′,N′-tetraacetic acid MW: 380.35, 38.035 mg/mL=100 mM • 1901.75 mg/50 mL=100 mM (pH to ˜7 with 5 M NaOH)—takes a long time to get into solution and for pH to stabilize • Triton-X-100, MW: 625, 62.5 mg/mL=100 mM (6.25% w/v) (viscous, pipette Triton X-100 with a Gilson using a trimmed pipette tip)
ECHO Protocol • Create an ECHO intermediate plate by adding 24.5 μL DMSO to columns 1 & 2, and 40 μL DMSO to columns 23 & 24 of an ECHO 384PP plate • Add 100 nL of compound/DMSO per well in 384-well Proxi-Plate Plus (white) —Perkin Elmer Cat #6008289 using ECHO dose response protocol 100 nL normal to proxi_8pt_200 uM.
Assay buffer (Keep on ice): HEPES pH 6.8, MgCl2, EGTA, Triton X-100, DTT, HPLC H2O Microtubule Working Solution (3.2): • 1 ml PM buffer: PIPES pH 7.0, MgCl2, HPLC H2O, Paclitaxel, mix well, store at rt • Then add 26.4 μL of 10 mg/ml microtubules to 724 μL of the above PM buffer to make 750 μL of microtubule working solution @350 μg/mL microtubules (store at rt)
Stock HSET enzyme solution (3.1)—keep on ice • Add 1.33 μL 10.2 μM HSET Prepi (SEQ-000096_002-01_01) to 1358 μL assay buffer to make a 10 nM stock for a 5 nM final assay concentration (1/1020 dilution).
HSET/Microtubule working solution (3.3) • Mix solutions 3.1 and 3.2 in the ratio of 2.5:1 (1214.3 μL 3.1+485.7 μL 3.2) keep at rt for 15 min • 3.2 is diluted 3.5-fold, 3.1 is diluted 1.4-fold BLANK solution is 357 μL 2XAB+143 μL microtubule working solution 3.2. (Same proportions as HSET/Microtubule working solution (3.3))
ATP Working solution is 1 μL 10 mM UltraPure ATP (Promega kit)+999 μL ddH20 gives 10 μM ATP for a 3 μM final assay concentration, stored on ice.
Assay procedure in PROXIPLATE 384 PLUS WHITE (Perkin Elmer) plates (Remove 2.4 mL ADP Glo and 4.5 mL Kinase detection reagent from freezer to warm up to rt) • Add 3.5 μL BLANK solution to assay plate (column 12) • Add 3.5 μL HSET/Microtubule solution (3.3) (columns 1-11 & 13-24) • Centrifuge at 1000 rpm for 1 min • (pre-incubate enzyme and compound for 10 min)
Add 1.5 μL of 10 μM ATP to start reaction gives a final [HSET] of 5 nM, [ATP] of 3 μM and [microtubule] of 70 μg/mL, centrifuge at 1000 rpm for 1 min and incubated at rt for 80 min.
After the 80-minute incubation, stop reaction by adding 5 μL ADP-Glo reagent to all wells. Centrifuge for 1 min at 1000 rpm, leave for 40 min at rt.
In the dark/away from direct light, add 10 μL Kinase Detection Reagent (KDR) to all wells, Seal plate with a Topseal (Perkin Elmer Cat #6050185) and centrifuge as above, leave for 40 min at rt covered in foil. […]
On the technique in general: ADP-Glo first removes unused ATP, then detects ADP through luciferase.
In general, IC50 refers to the midpoint of a concentration-inhibition curve. With `Cc1nc(-c2ccc3ccnc(N[C@H]4C[C@@H](C(=O)Nc5nc(C)c(C(=O)O[C@H](C)C(F)(F)F)s5)C4)c3c2)no1` (stereo in doubt) [Example 114, [(1 R)-2,2,2-trifluoro-1-methyl-ethyl]4-methyl-2-[[3-[[7-(5-methyl-1,2,4-oxadiazol-3-yl)-1-isoquinolyl]amino]cyclobutanecarbonyl]amino]thiazole-5-carboxylate], the IC50 worked out at 17 nM. The result for `Cc1nc(-c2ccc3ccnc(N[C@H]4C[C@@H](C(=O)Nc5nc(C)c(C(=O)O[C@@H](C)C(F)(F)F)s5)C4)c3c2)no1` (stereo in doubt) [Example 115, [(1 S)-2,2,2-trifluoro-1-methyl-ethyl]4-methyl-2-[[3-[[7-(5-methyl-1,2,4-oxadiazol-3-yl)-1-isoquinolyl]amino]cyclobutanecarbonyl]amino]thiazole-5-carboxylate] reads 5 nM; that for `CCOC(=O)c1sc(NC(=O)CCNC(=O)c2cccc(C)c2)nc1C` [Example 1, Ethyl 4-methyl-2-(3-(3-methylbenzamido)propanamido)thiazole-5-carboxylate], 2730 nM; that for `CCOC(=O)c1sc(NC(=O)CCNC(=O)c2cccc(N3CCCC3)c2)nc1C` [Example 2, Ethyl 4-methyl-2-(3-(3-(pyrrolidin-1-yl)benzamido)propanamido)thiazole-5-carboxylate], 3970 nM. Next, `CCOC(=O)c1sc(NC(=O)CCNC(=O)c2cccc(-n3cccn3)c2)nc1C` [Example 3, Ethyl 2-(3-(3-(1 H-pyrazol-1-yl)benzamido)propanamido)-4-methylthiazole-5-carboxylate]: 4570 nM; `CCOC(=O)c1sc(NC(=O)CCNC(=O)c2cccc(-c3noc(C)n3)c2)nc1C` [Example 4, Ethyl 4-methyl-2-(3-(3-(5-methyl-1,2,4-oxadiazol-3-yl)benzamido)propanamido)thiazole-5-carboxylate]: 63 nM; `CCOC(=O)c1sc(NC(=O)CCNC(=O)c2ccc3c(c2)CCCC3)nc1C` [Example 5, Ethyl 4-methyl-2-(3-(5,6,7,8-tetrahydronaphthalene-2-carboxamido)propanamido)thiazole-5-carboxylate]: 1660 nM. `CCOC(=O)c1sc(NC(=O)CCNC(=O)c2cccc(-c3cnco3)c2)nc1C` [Example 6, Ethyl 4-methyl-2-(3-(3-(oxazol-5-yl)benzamido)propanamido)thiazole-5-carboxylate]: the IC50 came out at 614 nM. Next, `CCOC(=O)c1sc(NC(=O)CCNC(=O)c2cccc(N3CCOCC3)c2)nc1C` [Example 7, Ethyl 4-methyl-2-(3-(3-morpholinobenzamido)propanamido)thiazole-5-carboxylate]: 15600 nM; `CCOC(=O)c1sc(NC(=O)[C@@H](O)CNC(=O)c2cccc(C)c2)nc1C` [Example 8, Ethyl (S)-2-(2-hydroxy-3-(3-methylbenzamido)propanamido)-4-methylthiazole-5-carboxylate]: 1210 nM; `CCOC(=O)c1sc(NC(=O)CCNC(=O)c2cc(F)cc(C(=O)OC)c2)nc1C` [Example 10, Ethyl 2-[3-[(3-fluoro-5-methoxycarbonyl-benzoyl)amino]propanoylamino]-4-methyl-thiazole-5-carboxylate]: 36 nM. Next, `CCOC(=O)c1sc(NC(=O)CCNC(=O)c2cccc(C(=O)OC)c2F)nc1C` [Example 11, Ethyl 2-[3-[(2-fluoro-3-methoxycarbonyl-benzoyl)amino]propanoylamino]-4-methyl-thiazole-5-carboxylate]: 1830 nM; `CCOC(=O)c1sc(NC(=O)CCNC(=O)c2cc(C(=O)OC)ccc2Cl)nc1C` [Example 12, Ethyl 2-[3-[(2-chloro-5-methoxycarbonyl-benzoyl)amino]propanoylamino]-4-methyl-thiazole-5-carboxylate]: 1100 nM; `CCOC(=O)c1sc(NC(=O)CCNC(=O)c2cc(Cl)cc(C(=O)OC)c2)nc1C` [Example 13, Ethyl 2-[3-[(3-chloro-5-methoxycarbonyl-benzoyl)amino]propanoylamino]-4-methyl-thiazole-5-carboxylate]: 9 nM. The result for `CCOC(=O)c1sc(NC(=O)CCNC(=O)c2ccc(C)c(C(=O)OC)c2)nc1C` [Example 14, Ethyl 2-[3-[(3-methoxycarbonyl-4-methyl-benzoyl)amino]propanoylamino]-4-methyl-thiazole-5-carboxylate] reads 325 nM; that for `CCOC(=O)c1sc(NC(=O)CCNC(=O)c2cc(C)cc(C(=O)OC)c2)nc1C` [Example 15, Ethyl 2-[3-[(3-methoxycarbonyl-5-methyl-benzoyl)amino]propanoylamino]-4-methyl-thiazole-5-carboxylate], 9 nM.

As for `CCOC(=O)c1sc(NC(=O)CCNC(=O)c2cc(OC)cc(C(=O)OC)c2)nc1C` [Example 16, Ethyl 2-[3-[(3-methoxy-5-methoxycarbonyl-benzoyl)amino]propanoylamino]-4-methyl-thiazole-5-carboxylate], the IC50 came out at 301 nM. Next, `CCOC(=O)c1sc(NC(=O)CCNC(=O)c2cc(C#N)cc(C(=O)OC)c2)nc1C` [Example 17, Ethyl 2-[3-[(3-cyano-5-methoxycarbonyl-benzoyl)amino]propanoylamino]-4-methyl-thiazole-5-carboxylate]: 869 nM; `CCOC(=O)c1sc(NC(=O)CCNC(=O)c2cc(Br)cc(C(=O)OC)c2)nc1C` [Example 18, Ethyl 2-[3-[(3-bromo-5-methoxycarbonyl-benzoyl)amino]propanoylamino]-4-methyl-thiazole-5-carboxylate]: 14 nM; `CCOC(=O)c1sc(NC(=O)CCNC(=O)c2cc(CC)cc(C(=O)OC)c2)nc1C` [Example 19, Ethyl 2-[3-[(3-ethyl-5-methoxycarbonyl-benzoyl)amino]-propanoylamino]-4-methyl-thiazole-5-carboxylate]: 17 nM.

Take `CCOC(=O)c1sc(NC(=O)CCNC(=O)c2cc(O)cc(C(=O)OC)c2)nc1C` [Example 20, Ethyl 2-[3-[(3-hydroxy-5-methoxycarbonyl-benzoyl)amino]-propanoylamino]-4-methyl-thiazole-5-carboxylate]: the IC50 was determined as 737 nM. The result for `CCOC(=O)c1sc(NCCCNC(=O)c2cccc(-c3noc(C)n3)c2)nc1C` [Example 21, Ethyl 4-methyl-2-[3-[[3-(5-methyl-1,2,4-oxadiazol-3-yl)benzoyl]amino]-propylamino]thiazole-5-carboxylate] reads 17100 nM.
